From patent US7888116B2, “Uses of notch receptors, notch ligands, and notch modulators in methods related to metabolic diseases” (The United States of America as represented by the …, priority 2005, dated 2011) come the findings set out here.

The test system of one series is RIN 1046-38 β-cells. The series is described as follows: Insulin secretion and intracellular insulin in RIN cells (ELISA). It counts as cell-based, rat. As to conditions: for insulin release, R-JAG and Ex-4 together vs either alone: 6 h time point; for total intracellular insulin: 6 h treatment; for insulin release into the medium: time course. As for the experimental part:
(§1) Insulin assays and cell turnover studies. Insulin secretion assays were performed and intracellular insulin was extracted as described (Wang, Y. et al., J. Clin. Invest., 99:2883-2889 (1997)), followed by insulin quantification using an ELISA kit (Crystal Chem). Cells were treated for 8 h as indicated and pulsed with [^3H]thymidine (PerkinElmer Life Sciences) at 37° C., followed by lysis of the cells and [^3H] counting (He, et al., J Biol Chem, 278:27096-27104 (2003)).
(In an ELISA, binding on a coated surface is turned into a signal by an enzyme label.)

A further series has as its target T1, γ-secretase (Rattus norvegicus, UniProt P97887).
T1 construct: endogenous in cells; host or cells: RIN 1046-38 rat β-cells
The series is described as follows: γ-secretase activity assay (Notch ΔE-GVP / UAS-luciferase reporter) in RIN cells. It counts as cell-based. The settings on record: for effect on Ex-4-activated γ-secretase cleavage / UAS promoter activation: RIN cells transfected with Notch ΔE-GVP. The protocol: Transfections and Luciferase assays. The rat insulin-I promoter linked to the luciferase reporter plasmid pGL3 (Ins-1-luc) was obtained from Michael Freemark (Fleenor and Freemark, Endocrinology, 142:2805-2810 (2001)), and both the Notch ΔE-GVP plasmid and UAS responsive reporter gene construct MH100 were from Johan Lundkvist (Karlstrom, et al., J Biol Chem, 277:6763-6766 (2002)). For the insulin reporter gene assay, RIN cells in 35 mm dishes were co-transfected with 0.8 μg ins-1-luc plasmid and 0.7 μg of pCMV-β-galactosidase using 8 μl of Polyfect (Qiagen). For the γ-secretase activity assay RIN cells in 12 well plates were co-transfected with 30 ng of pCMV-β-galactosidase, 200 ng of MH100, 100 ng Notch ΔE-GVP plasmids for each well using Lipofectamine PLUS (Invitrogen). The transfected cells were allowed to recover for 24-48 h in medium with serum and subsequently incubated in insulin secretion assay buffer (for the insulin promoter assay) or in medium without serum (for the γ-secretase assay) with or without Ex-4 and inhibitors. Ins-1-luc and Notch ΔE-GVP activities were measured using assay system kits from Promega according to the manufacturer's instructions using a Berthord LB 9501 luminometer. The luciferase values were normalized to β-galactosidase measured using the luminometer for lysates from 35 mm dishes and an ELISA plate reader (Spectra Max Plus, Molecular Devices) for lysates from 12 well plates.

In series [1] the test system is RIN cells. The series is described as follows: [3H]thymidine uptake (β-cell proliferation) in RIN cells. The settings on record: 8 h treatment. It counts as cell-based, rat. The protocol: as §1
For a further series, the system named is C57/BL6 mouse islets. The series is described as follows: Immunoblotting for IRS2 and PDX-1 in C57/BL6 mouse islets treated for 8 h. As to conditions: for PDX-1 levels: islets. It counts as cell-based. As for the experimental part: (§2) Islet isolation, cell culture and treatments. Adult rat (Sprague-Dawley) and mouse (C57/BL6) islets were isolated by collagenase P digestion and cultured overnight in M199 medium (5 mM glucose). RIN 1046-38 β-cells were cultured as outlined previously (Wang, et al., Endocrinology, 142:1820-1827 (2001)). Isolated human islets came from David Harlan, Transplant Section, NIDDK. Ex-4, GLP-1, CCK (all used at concentrations previously shown to cause maximum insulin release), Ex and the γ-secretase inhibitor, L-685,458, were obtained from Bachem. H89 was from Calbiochem, insulin was from Sigma. The Jagged peptides, R-JAG […] (SEQ ID NO:1), JAG-1 […] (SEQ ID NO:2), and scrambled control peptide without agonist activity, sc-Jagged […] (Nickoloff, et al., Cell Death Differ, 9842-855 (2002)) (SEQ ID NO:3), were synthesised by New England Peptide Inc.
(§3) Cell extracts, immunoblotting and RT-PCR. Cytosolic and nuclear cell extracts were prepared using the NE-PER Nuclear and Cytoplasmic Extraction Reagents (Pierce) in accordance with the manufacturer's instructions. Whole cell extracts were isolated as described (Wang, et al., Endocrinology, 142:1820-1827 (2001)). Cell extracts were separated by Tris-glycine (10%, 4-12%) PAGE (Invitrogen) and immunoblofted as described (Wang, et al., Endocrinology, 142:1820-1827 (2001)) using the following antibodies: rabbit anti-Notch1 (1:5,000), rabbit anti-IRS2 (1:1,000), both from Upstate Biotechnology, rabbit N-terminal anti-PDX-1 (1:10,000, from Joel Habener (Stanojevic, et al., Endocrinology, 145:2918-2928 (2004)). Total RNA was extracted using Triazol (Invitrogen) according to the manufacturer's instructions. RT-PCR was performed using the Qiagen OneStep RT-PCR kit. See Table 2 for primer sequences and annealing temperatures. Each target gene was amplified over 35 cycles.

Series [2] concerns Notch-1 (NICD). The series is described as follows: NICD in islet nuclei of wild-type and GLP-1R null mice after intraperitoneal treatment. It is filed as in vivo, mouse. As to conditions: fasted, 1 nmol/kg IP. The protocol: (§4) Animal Protocols. Wild-type and GLP-1R −/− mice (Scrocchi, L. A. et al. Nat. Med., 2:1254-1258 (1996)) were injected intraperitoneally with Ex-4 (1 nmol/kg) or glucose (1 g/kg) after overnight fast and their pancreata excised. Animal protocols were approved by the NIA Animal Care and Use Committee. RIN cells were permeabilized in Triton-X (0.1%) on ice and blocked for 1 h at room temperature in 3% BSA and 0.1% Tween in PBS. They were incubated overnight at 4° C. with the primary antibody, washed in PBS and incubated with fluorescent labelled secondary antibody for 1 h, washed and mounted with fluorescence mounting medium (Vector Laboratories). Mouse sections (FIG. 9) for indirect immunofluorescence were antigen-retrieved, processed in the same manner as the cells and stained with anti-Notch-1. Indirect immunofluorescent staining was imaged using a Zeiss LSM-410 inverted microscope. AlexaFluor antibodies (Molecular Probes; Eugene, Oreg.) were excited with the 488-nm line of a krypton-argon laser and recorded at the presence of emission filter BP515-565 nm. The microscope objective was a Zeiss 63×NA 1.4 oil immersion and the confocal pinhole was set to obtain spatial resolution of […] in the horizontal plane and […] in the axial dimension.

Series [3] has as its system Notch-1 (NICD). The series is described as follows: NICD nuclear translocation in RIN cells (indirect immunofluorescence, immunoblot of nuclear extracts). It is filed as cell-based, rat. The settings on record: for effect on Ex-4-mediated translocation of NICD: H89 10 μM, L-685,458 pretreatment for 2 h. The protocol:
as §2, §3
as §4, with “RIN” for “Animal Protocols. Wild-type and GLP-1R −/− mice (Scrocchi, L. A. et al. Nat. Med., 2:1254-1258 (1996)) were injected intraperitoneally with Ex-4 (1 nmol/kg) or glucose (1 g/kg) after overnight fast and their pancreata excised. Animal protocols were approved by the NIA Animal Care and Use Committee. RIN”
(In general: Immunoblotting shows a protein as a band on a membrane.)

In series [4] the test system is RIN cells. Description: RT-PCR and immunoblotting of whole RIN cell extracts (insulin, IRS2, PDX-1, Notch-1). It is filed as cell-based, rat. As for the experimental part:
as §3, with “Each target gene was amplified over 35 cycles.” left out

For a further series, the system named is Rat islets. The series is described as follows: Rat islets: real time PCR and intracellular insulin after R-JAG. It is filed as cell-based. The protocol:
Rat islets (80) were pre-incubated for 2 periods of 30 min in the glucose-free buffer in a 37° C. humidified air incubator. […] At the end of the experiment, islets were centrifuged and any residual medium removed and stored −20° C. for quantification of insulin released. The pellet was suspended in ice cold acid-ethanol (500 μl) and homogenized. After centrifugation of the homogenate (1,400 g, 4° C.) the supernatant was collected for measurement of intracellular insulin using the Rat insulin ELISA kit from Crystal Chem. Inc. (Chicago, Ill.). The pellet was lysed with 0.2 ml formic acid and saved at […] for analysis of protein by the Bradford method (Bio-Rad Laboratories, Inc. Richmond, Calif.). A control condition with insulin secretion assay buffer containing just 6 mM glucose was used. Insulin values were normalized to protein content.
Reverse transcription. DNA-free RNA was isolated using the Triazol extraction method (Invitrogen; Carlsbad, Calif.) following the manufacturer's protocol. DNAse I treatment and inactivation, and reverse transcription reaction primed with random sequence oligonucleotides were performed using Ambion instruction manual and Cells-to-cDNA II kits components in the I-Cycler thermocycler from BioRad. As a control, a mock reverse transcription containing all RT reagents except the Reverse Transcriptase, which was substituted with water, was used.
Real Time PCR. Real time PCR reactions were performed using the ABI PRISM™ 7700 Sequence Detection Systems (Applied Biosystems; Valencia, Calif.) and the SYBER Green kit from Applied Biosystems. All PCR reactions were performed in triplicate using the SYBER Green master mix (12.5 μl) from Applied Biosystems, 1 μg of cDNA, 2.5 μl of each 0.5 μM primer and water for a 25 μl reaction. Cycling parameters for amplifications of target genes were (95° C. for 10 min, at 94° C. for 15 seconds, 60° C. for 1 min)×40 cycles. The target gene copy number in unknown samples was quantified by measuring the threshold cycle CT and by using the standard curve to determine the starting copy number. The β-actin gene was an endogenous control. Final results were expressed as n-fold differences relative to untreated controls.

“Also recorded” adds a separate entry of the source.

For the compound Exendin-4 [Ex-4], in the series with RIN 1046-38 β-cells (RIN cells), the “insulin release, R-JAG and Ex-4 together vs either alone” value was “greater that either alone”; the total intracellular insulin entry is reported as “increased”; the “insulin release into the medium” value is “acutely increased”. The “increase in transcriptional activation of the UAS promoter (cleavage of Notch ΔE-GVP)” value in the series with γ-secretase (RIN cells transfected with Notch ΔE-GVP and MH100) is “at least 20 fold”. The “[3H]thymidine uptake, increase above glucose treatment” value with RIN cells [1] was “increased”. Moreover, the PDX-1 levels result in the series on C57/BL6 mouse islets is given as “increased”. Also, the “NICD translocation to islet cell nuclei” value in the series with Notch-1 (NICD) [2] is “caused NICD translocation to nuclei of practically all islet cells; also recorded: increased NICD in all islet cells”.

Take insulin: in the series with Notch-1 (NICD) [3] (RIN cells treated with secretagogues), the “nuclear NICD / NICD translocation” value was “equivalent to control samples”.

For `O=S(=O)(NCCNC/C=C/c1ccc(Br)cc1)c1cccc2cnccc12` [H89], in the series on Notch-1 (NICD) [3] (RIN cells), the “effect on glucose-mediated NICD translocation” value is given as “prevented” and the “effect on Ex-4-mediated translocation of NICD” value is listed as “diminished”. For the same compound, at γ-secretase, the “effect on Ex-4-activated γ-secretase cleavage / UAS promoter activation” value is “greatly diminished; also recorded: abrogated; also recorded: blocked”.

Consider `CC(C)C[C@H](NC(=O)[C@H](Cc1ccccc1)C[C@@H](O)[C@H](Cc1ccccc1)NC(=O)OC(C)(C)C)C(=O)N[C@@H](Cc1ccccc1)C(N)=O` [L-685,458], for which, in the series on Notch-1 (NICD) [3] (RIN cells), the “effect on Ex-4-mediated translocation of NICD” value is “inhibited”. In addition, the “effect on Ex-4-activated γ-secretase cleavage / UAS promoter activation” value at γ-secretase is listed as “greatly diminished; also recorded: abrogated; also recorded: blocked”. In the series on C57/BL6 mouse islets (C57/BL6 mouse islets), the “effect on Ex-4-mediated increase in IRS2 levels” value is recorded as “diminished; also recorded: decreased” and the “effect on R-JAG-mediated increases in IRS2 levels” value was “prevented; also recorded: completely abrogated”.

As to “scrambled Jagged peptide: scrambled control peptide without agonist activity, RCGPDCFDNYGRYKYCF (SEQ ID NO:3)”, in the series with RIN cells [1], the “[3H]thymidine uptake, increase above glucose treatment” value is “no effect”.

Take Exendin 9-39: the “NICD nuclear localization with GLP-1 (50 nM) in conjunction with the GLP-1R antagonist” value with Notch-1 (NICD) [3] (RIN cells, antagonist 500 nM) is “equivalent to glucose treatment alone”.

For “R-JAG: Jagged-related peptide, Notch receptor binding fragment, CDDYYYGFGCNKFGRPRDD (SEQ ID NO:1)”, in the series on RIN 1046-38 β-cells (RIN cells treated with R-JAG), the “trypan blue exclusion (cell death)” value is listed as “continued to exclude trypan blue”. Besides, the “insulin secretion, replenishment every two hours vs single treatment” value with RIN 1046-38 β-cells (RIN cells, 6 h) is recorded as “greater effect”. Further, in the series on RIN 1046-38 β-cells (RIN cells), the “insulin release, R-JAG and Ex-4 together vs either alone” value is recorded as “greater that either alone”; the total intracellular insulin result is on record as “significant increase”; the “insulin release into the medium” value was “elevated insulin release into the medium after 2.5 h had elapsed”. In addition, in the series with RIN cells [4], the PDX-1 levels result was “increased”. For the same compound, in the series with RIN cells [4] (RT-PCR), the “IRS2 and insulin mRNA with replenishing every 2 h” value is “sustained elevations”; the “IRS-2 mRNA” value is recorded as “increased”; the “insulin mRNA levels” value is listed as “increased”. Also, the “time course of IRS2 and insulin mRNA after single treatment” value with RIN cells [4] (RT-PCR 27 cycles, normalized to GAPDH) is recorded as “diminished after 8 h”. Moreover, in the series on RIN cells [4] (immunoblot), the IRS-2 protein levels entry is recorded as “increased” and the “total Notch1 levels” value is listed as “increased”. For the same compound, in the series with Rat islets (R-JAG 10 μM, glucose 6 mM), the intra-cellular insulin result was “increase”. In the series with Rat islets (over 2 and 6 hours), the IRS-2 transcription result is recorded as “increases”, the PDX-1 transcription entry was “increases” and the insulin transcription result is reported as “increases”. In the series with RIN cells [1], the “[3H]thymidine uptake, increase above glucose treatment” value was found to be 30%. Besides, in the series with C57/BL6 mouse islets, the PDX-1 levels result was “increased”. Further, the “increase in IRS-2 protein levels” value in the series on C57/BL6 mouse islets (mouse islets of Langerhans) is 1.5 fold.
